Reference: patent US20080103193A1, “Methods for making compositions and compositions for treating pain and cachexia” (priority 2006, published 2008)
“Also recorded” adds a separate entry of the source.

Tests used:
[1] = cited from earlier work; for psychoactivity relative to THC: compared with Δ9-THC
[2] = Room temperature storage of marijuana biomass, Δ9-THC content; format: physicochemical; settings: 8-month period, room temperature storage at RTI
Experimental: Under DEA Schedule I license (No. RC0288058), two 250-gram shipments of high potency, bulk marijuana biomass were requested from the National Institute of Drug Abuse (NIDA). Both shipments were provided by the Research Triangle Institute (RTI) International, Research Triangle Park, N.C. under contract with NIDA. The first batch (RTI Batch No. 8976-1001-26/University of Mississippi Batch No. 1182/1186) was received and logged in at Aphios on Dec. 17, 2002. This batch was measured by the University of Mississippi's Thad Cochran National Center for the Natural Products Research to have a Δ9-THC content of 8.98%. Table 1 lists the concentration of other cannabinoids per the provided Certificate of Analysis (Dec. 2, 2002). Table 1 also lists HPLC measurements of heat-treated biomass made by Aphios' chemists; the methods and data are detailed below. The biomass was stored in a locked safe at room temperature when not in use. All usage was recorded on a log sheet that was also stored in the same safe.
The second shipment, also from the same batch of high potency marijuana from the U. of Mississippi, was received and logged in at Aphios on Aug. 14, 2003. The second shipment was measured by RTI on Jul. 29, 2003 to have a Δ9-THC content of 6.12% by GLC analysis. […]

[3] = cited from earlier work

CCCCCc1cc(O)c2c(c1)OC(C)(C)[C@@H]1CC=C(C)C[C@@H]21 [Δ-8-THC, Δ8-tetrahydrocannabinol]
psychoactivity relative to THC [1]: slightly less active

C=C(C)[C@@H]1CCC(C)=C[C@H]1c1c(O)cc(CCCCC)cc1O [CBD, cannabidiol]
psychoactivity ([1]; in vivo): not psychoactive; also recorded: not psychotomimetic in pure form

CCCCCc1cc(O)c2c(c1)OC(C)(C)[C@@H]1CCC(C)=C[C@@H]21 [Δ9-THC, Δ9-tetrahydrocannabinol]
decrease of Δ9-THC content of the marijuana biomass [2]: about 32%

CCCCCc1cc(O)c2c(c1)OC(C)(C)[C@@H]1CCC(CO)=C[C@@H]21 [11-OH-A-9-THC]
psychoactivity relative to THC [1]: three times more psychoactive

CCCCCc1cc(O)c2c(c1)OC(C)(C)[C@@H]1CCC(C)=C[C@@H]21 [Dronabinol]
bioavailability (reaches systemic circulation) ([3]; oral Dronabinol): 6-20%
time to peak plasma concentrations after dosing ([3]; oral Dronabinol): 2 to 4 h
bioavailability ([3]; oral intake of synthetic Δ9-THC capsules): 6-20%
